Laboratory results: the NIST ThermoML archive (doi:10.1016/j.jct.2005.10.009)

Assay: molar heat capacity at constant pressure; xn = mol fraction of the nth substance listed
Conditions: 101 kPa, Liquid, Small sample (50 mg) DSC

CCCCCCCCCCO [decan-1-ol] + CCCCCCC
molar heat capacity at constant pressure [J/K/mol]
Conditions | x1 = 0.0506 | x1 = 0.0979 | x1 = 0.1541 | x1 = 0.2543 | x1 = 0.3757 | x1 = 0.5378 | x1 = 0.7551 | x1 = 0.9008 | x1 = 1
290.91 K | 235.98 | 243.78 | 252.15 | 266.07 | 282.7 | 304.21 | 333.09 | 351.55 | 364.49
291.15 K | 236.08 | 243.9 | 252.2 | 266.16 | 282.63 | 304.17 | 333.35 | 351.9 | 364.8
292.15 K | 236.53 | 244.42 | 252.79 | 266.99 | 283.4 | 305.3 | 334.38 | 353.11 | 366.05
293.15 K | 237.09 | 245.13 | 253.5 | 267.69 | 284.09 | 306.17 | 335.4 | 354.31 | 367.19
294.15 K | 237.67 | 245.8 | 254.28 | 268.44 | 284.97 | 307.04 | 336.39 | 355.23 | 368.25
295.15 K | 238.27 | 246.44 | 255.06 | 269.19 | 285.92 | 308.08 | 337.47 | 356.26 | 369.35
296.15 K | 238.89 | 247.13 | 255.82 | 269.75 | 286.81 | 308.89 | 338.44 | 357.26 | 370.35
297.15 K | 239.51 | 247.87 | 256.61 | 270.59 | 287.73 | 309.97 | 339.61 | 358.4 | 371.6
298.15 K | 239.86 | 248.38 | 257.16 | 271.36 | 288.4 | 310.74 | 340.46 | 359.54 | 372.77
299.15 K | 240.3 | 248.86 | 257.8 | 272.19 | 289.09 | 311.53 | 341.42 | 360.58 | 373.71
300.15 K | 240.83 | 249.51 | 258.45 | 272.99 | 289.92 | 312.43 | 342.44 | 361.76 | 374.91
301.15 K | 241.28 | 250.01 | 259.03 | 273.68 | 290.74 | 313.24 | 343.35 | 362.66 | 375.89
302.15 K | 241.86 | 250.66 | 259.8 | 274.46 | 291.61 | 314.17 | 344.4 | 363.81 | 377.05
303.15 K | 242.35 | 251.17 | 260.34 | 275.23 | 292.47 | 315.15 | 345.4 | 364.87 | 378.2
304.15 K | 242.86 | 251.87 | 261.18 | 276.03 | 293.43 | 316.13 | 346.52 | 366.04 | 379.47
305.15 K | 243.39 | 252.56 | 261.84 | 276.84 | 294.24 | 317.05 | 347.59 | 367.12 | 380.58
306.15 K | 243.87 | 253.07 | 262.53 | 277.6 | 295.15 | 318 | 348.57 | 368.24 | 381.75
307.15 K | 244.14 | 253.41 | 262.92 | 278.04 | 295.57 | 318.55 | 349.26 | 368.97 | 382.43
308.15 K | 245.18 | 254.65 | 264.24 | 279.52 | 297.18 | 320.29 | 351.13 | 370.98 | 384.6
309.15 K | 245.41 | 255.04 | 264.68 | 280.05 | 297.76 | 320.96 | 351.89 | 371.76 | 385.42
310.15 K | 245.95 | 255.58 | 265.32 | 280.82 | 298.67 | 321.92 | 352.97 | 372.9 | 386.61
311.15 K | 246.43 | 256.31 | 266.13 | 281.69 | 299.62 | 323.01 | 354.17 | 374.19 | 387.89
312.15 K | 246.88 | 256.87 | 266.75 | 282.41 | 300.41 | 323.89 | 355.15 | 375.27 | 389.03
313.15 K | 247.31 | 257.46 | 267.42 | 283.25 | 301.36 | 324.89 | 356.22 | 376.4 | 390.28
314.15 K | 247.77 | 258.06 | 268.13 | 284.06 | 302.25 | 325.9 | 357.35 | 377.6 | 391.58
315.15 K | 248.34 | 258.68 | 268.86 | 284.88 | 303.16 | 326.94 | 358.54 | 378.81 | 392.8
316.15 K | 248.75 | 259.2 | 269.56 | 285.67 | 304.03 | 327.84 | 359.56 | 379.98 | 394.11
317.15 K | 249.2 | 259.91 | 270.2 | 286.49 | 304.91 | 328.86 | 360.67 | 381.22 | 395.3
318.15 K | 249.65 | 260.46 | 270.95 | 287.25 | 305.87 | 329.91 | 361.79 | 382.38 | 396.66
318.39 K | 249.73 | 260.52 | 271.04 | 287.43 | 306.02 | 330.09 | 362.01 | 382.62 | 396.93
